{
  "source": "patent US20120309744A1",
  "about": "“DOSING REGIMENS AND METHODS FOR TREATING OR PREVENTING HEPATOCELLULAR CARCINOMA” (NBI Pharmaceuticals, Inc., priority 2011, published 2012)",
  "key": {"MMP-3": {"tested_on": "MMP-3", "test": "Suppression of TPA-induced MMP expression", "type": "cell-based", "excerpt": "(§1) Since MK4 inhibits MMP-1, -3 and -7 mRNA expression, the ability of MK4 to suppress TPA-induced MMP expression will be investigated. […] MK4 also suppresses the MMP-1 and -3 protein expression induced by TPA."}, "MMP-7": {"tested_on": "MMP-7", "test": "Suppression of TPA-induced MMP expression", "type": "cell-based", "excerpt": "as §1"}, "MMP-1": {"tested_on": "MMP-1", "test": "Suppression of TPA-induced MMP expression", "type": "cell-based", "excerpt": "as §1"}, "hepatocellular carcinoma [1]": {"tested_on": "hepatocellular carcinoma", "test": "Subject with hepatocellular carcinoma given oral MK4 (induction then maintenance)", "type": "in vivo, human", "experimental": "A subject suffering from hepatocellular carcinoma is administered oral MK4 (90 mg daily once a day). After the administration of MK4 for six weeks, tumor sizes will decrease and the diameter of the main tumor is smaller. […] This case report provides compelling evidence that MK4 may be useful in the treatment of HCC."}, "hepatocellular carcinoma [2]": {"tested_on": "hepatocellular carcinoma", "test": "Randomized study of oral MK4 versus no MK4 in patients with hepatocellular carcinoma", "type": "in vivo, human", "experimental": "Patients with hepatocellular carcinoma are randomized to receive oral MK4 (90 mg/day) or no MK4. All patients receive conventional therapy with percutaneous tumor ablation and/or transcatheter arterial embolization. The rate of portal vein invasion at 12 months of follow-up will be reduced in MK4 recipients as compared with controls."}, "[3]": {"tested_on": "dysplastic nodule or early HCC", "test": "Subject with HCV-related liver cirrhosis and dysplastic nodule or early HCC given MK4 and an ACE-I", "type": "in vivo, human", "excerpt": "Treatment with MK4 and an ACE-I normalizes AFP and AFP-L3 tumor markers and the hepatic nodule disappears. A subject with hepatitis C virus (HCV)-related liver cirrhosis is diagnosed with what was termed a “dysplastic nodule or early HCC.” The diagnosis is based on enhanced computed tomography (CE-CT) study and elevations of the tumor markers alpha-fetoprotein (AFP) and lectin-reactive alpha-fetal protein (AFP-L3)."}, "MMP-3 promoter": {"tested_on": "MMP-3 promoter", "test": "MMP promoter/luciferase reporter assay in transfected HCC cells", "type": "cell-based", "settings": "HepG2 cells, luciferase reporter", "excerpt": "To investigate the mechanism of suppression of MMP-1, -3 and -7 expression by MK4, HCC cells will be transiently transfected with MMP-1, -3 and -7 promoter/luciferase reporter plasmids and then treated with MK4."}, "[4]": {"settings": "after six weeks at 90 mg, additional twenty-two months at 45 mg daily once a day"}, "[5]": {"settings": "after 12 months at 90 mg/day, additional twenty-two months at 45 mg daily once a day"}, "[6]": {"settings": "after one-year combined treatment, MK-4 45 mg daily for additional 48 months, ACE-I halted"}, "[7]": {"settings": "oral MK4 90 mg daily with ACE-I (e.g., perindopril; 4 mg/day)"}},
  "data": [
    {"smiles": "CC(C)=CCC/C(C)=C/CC/C(C)=C/CC/C(C)=C/CC1=C(C)C(=O)c2ccccc2C1=O", "note": "[MK4, menatetrenone]", "values": [
      {"measurement": "MMP-3 mRNA expression induced by TPA", "setting": "MMP-3", "result": "dose-dependently inhibits"},
      {"measurement": "MMP-3 promoter activity induced by TPA", "setting": "MMP-3", "result": "dose-dependently suppresses"},
      {"measurement": "MMP-3 protein expression induced by TPA", "setting": "MMP-3", "result": "suppresses"},
      {"measurement": "MMP-7 mRNA expression induced by TPA", "setting": "MMP-7", "result": "dose-dependently inhibits"},
      {"measurement": "MMP-7 promoter activity induced by TPA", "setting": "MMP-7", "result": "dose-dependently suppresses"},
      {"measurement": "MMP-1 mRNA expression induced by TPA", "setting": "MMP-1", "result": "dose-dependently inhibits"},
      {"measurement": "MMP-1 promoter activity induced by TPA", "setting": "MMP-1", "result": "dose-dependently suppresses"},
      {"measurement": "MMP-1 protein expression induced by TPA", "setting": "MMP-1", "result": "suppresses"},
      {"measurement": "recurrence", "setting": "hepatocellular carcinoma [1]; [4]", "result": "no signs of recurrence are observed"},
      {"measurement": "tumor markers", "setting": "hepatocellular carcinoma [1]; [4]", "result": "remain within the normal limits"},
      {"measurement": "diameter of the main tumor", "setting": "hepatocellular carcinoma [1]; oral 90 mg daily once a day for six weeks", "result": "smaller"},
      {"measurement": "rate of portal vein invasion", "setting": "hepatocellular carcinoma [2]; 12 months of follow-up, oral MK4 90 mg/day plus conventional therapy, versus controls", "result": "reduced"},
      {"measurement": "recurrence", "setting": "hepatocellular carcinoma [2]; [5]", "result": "no signs of recurrence are observed"},
      {"measurement": "tumor markers", "setting": "hepatocellular carcinoma [2]; [5]", "result": "remain within the normal limits"},
      {"measurement": "serum level of AFP", "setting": "[3]; [6]", "result": "remain in the normal range"},
      {"measurement": "serum level of AFP-L3", "setting": "[3]; [6]", "result": "remain in the normal range"},
      {"measurement": "serum level of AFP", "setting": "[3]; [7]", "result": "gradually decrease"},
      {"measurement": "serum level of AFP-L3", "setting": "[3]; [7]", "result": "gradually decrease"},
      {"measurement": "MMP-3 promoter activity", "setting": "MMP-3 promoter", "result": "decrease MMP-3 promoter activity weakly"}
    ]}
  ]
}
